Experimental data from ChEMBL document CHEMBL1124714, “Synthesis and in vitro activity of stereoisomers of a novel thromboxane receptor antagonist, (+-)-(5Z)-7-[3-endo-[(phenylsulfonyl)amino]bicyclo [2.2.1]hept-2-exo-yl]heptenoic acid” (J Med Chem, 1990).

Legend:
Type in all cases: functional, organism-based
Rattus norvegicus [1] = species on record: Rattus norvegicus; assay: Inhibitory activity against rat thoracic aorta(induced by 30 nM of U-46619)
Rattus norvegicus [2] = species on record: Rattus norvegicus; assay: Inhibitory activity against aggregation of rat washed platelets (induced by 4 ug/mL of collagen)
Homo sapiens = species on record: Homo sapiens; assay: Inhibitory activity against aggregation of human platelet-rich plasma(induced by 4 uM of U-46619)

With `O=C(O)CCC/C=C\C[C@H]1C2CC[C@@H](C2)[C@@H]1NS(=O)(=O)c1ccccc1` as the compound, how does the IC50 (Rattus norvegicus [1]) read?
Its IC50 is 1.4 nM.

What about the IC50 (Rattus norvegicus [2]) of the same compound?
Its IC50 is 2.9 nM.

What about the IC50 (Homo sapiens) of the same compound?
Its IC50 is 450 nM.

Which IC50 (Homo sapiens) does the source give for `O=C(O)CCC/C=C\C[C@@H]1[C@H](CNNC(=O)Nc2ccccc2)[C@H]2CC[C@H]1O2` here?
Its IC50 is 60 nM.

Which results are given for `O=C(O)CCC/C=C\C[C@@H]1C2CC[C@@H](C2)[C@@H]1NS(=O)(=O)c1ccccc1`?
IC50 (Rattus norvegicus [1]): 37.2 nM; IC50 (Rattus norvegicus [2]): 4.1 nM; IC50 (Homo sapiens): 2500 nM

For `O=C(O)CCC/C=C\C[C@@H]1C2CC[C@@H](C2)[C@H]1NS(=O)(=O)c1ccccc1`, which IC50 (Rattus norvegicus [1]) is on record?
Its IC50 is 16.9 nM.

And the IC50 (Rattus norvegicus [2])?
Its IC50 is 2.9 nM.

And the IC50 (Homo sapiens)?
The IC50 was 3300 nM.

`O=C(O)COc1ccc(CCNS(=O)(=O)c2ccccc2)cc1` [SULOTROBAN] was tested. Which IC50 (Rattus norvegicus [1]) did it give?
The IC50 was 1800 nM.

What about the IC50 (Rattus norvegicus [2]) of the same compound?
The IC50 was 260 nM.

What about the IC50 (Homo sapiens) of the same compound?
Its IC50 is 7200 nM.
